How the values were obtained:
Test in all cases: Cu(II)-VBIDA affinity for the tag (Table 1)
Format in all cases: binding
Conditions in all cases: r^2 ≈ 0.98
[1] = molecular target: green fluorescent protein (GFP) variant GFP12, tag MEFHSVGLH, SEQ ID NO: 6
Excerpt: (§1) In this figure the kD data is given in millimolar not micromolar units.

[2] = molecular target: green fluorescent protein (GFP) variant GFP2, tag MEFHSVGMH, SEQ ID NO: 3
Excerpt: as §1

[3] = molecular target: green fluorescent protein (GFP) variant GFP24, tag MEFHLRARH, SEQ ID NO: 7
Excerpt: as §1

[4] = molecular target: green fluorescent protein (GFP) variant GFP28, tag MEFHITGHH, SEQ ID NO: 11
Excerpt: as §1

[5] = molecular target: green fluorescent protein (GFP) variant GFP29, tag MEFHHSLVH, SEQ ID NO: 12
Excerpt: as §1

[6] = molecular target: green fluorescent protein (GFP), n-GFP (native, N-terminus MEFELGT, SEQ ID NO: 1)
Excerpt: as §1

[7] = molecular target: green fluorescent protein (GFP) variant GFP25, tag MEFHRPMRH, SEQ ID NO: 8
Excerpt: as §1
(§2) These values are suitably low for such tags to be used in a separation process with binding of target at high enough affinity to allow for ease of washing and recovery.

[8] = molecular target: green fluorescent protein (GFP) variant GFP27, tag MEFHWVARH, SEQ ID NO: 10
Excerpt: as §1, §2

[9] = molecular target: green fluorescent protein (GFP) variant GFP30, tag MEFHAHHLH, SEQ ID NO: 13
Excerpt: as §1, §2

[10] = molecular target: green fluorescent protein (GFP), 6His-GFP, tag […], SEQ ID NO: 14
Excerpt: as §1, §2

**Q.** For `C=Cc1ccc(CN(CC(=O)O)CC(=O)O)cc1.[Cu+2]` [Cu(II)-VBIDA, N-(4-vinyl)-benzyl iminodiacetic acid], which Kd [1] is on record?
**A.** 200 µM

**Q.** What about the Kd [2] of the same compound?
**A.** 1200 µM

**Q.** What about the Kd [3] of the same compound?
**A.** 150 µM

**Q.** What about the Kd [4] of the same compound?
**A.** 110 µM

**Q.** And the Kd [5]?
**A.** 100 µM

**Q.** What about the Kd [6] of the same compound?
**A.** 1680 µM

**Q.** And the Kd [7]?
**A.** 140 µM

**Q.** And the Kd [8]?
**A.** 120 µM

**Q.** What about the Kd [9] of the same compound?
**A.** 90 µM

**Q.** What about the Kd [10] of the same compound?
**A.** 70 µM
